Data set [1] deals with L363. As to the kind of experiment: Cell viability assay (Cell Titer-Glo), HMCL. It counts as cell-based. Particulars: Homo sapiens, L-363, 96H. As for the experimental part: (§1) The panel of 17 HMCL cell lines were incubated with increasing concentrations of Ironomycin (A), AM23 (B) or vehicle for 96H.
(§2) HMCL cell lines were cultured for 4 days in 96-well flat-bottom microtiter plates in RPMI 1640 medium or DMEM medium, 10% or 20% FCS (control medium) in the presence of various compounds. The number of viable cells in culture was determined using the Cell Titer-Glo Luminescent Cell Viability Assay from Promega, Madison, WI, USA using a Centro LB 960 luminometer (Berthold Technologies, Bad Wildbad, Germany).
(§3) This test is based on quantitation of the intracellular ATP present, which signals the presence of metabolically active cells. Data are expressed as the mean percentage of six replicates, normalized to the untreated control.
(In ATP-based viability assays light output follows the ATP content of the culture.)

In data set [2] the test system is MOLP-8. Nature of the data set: Cell viability assay (Cell Titer-Glo), HMCL. It counts as cell-based. The conditions noted are these: Homo sapiens; MOLP-8 HMCL, 96H; read-out: IC50. As for the experimental part: as §1, §2, §3
For data set [3], the system named is OPM-2. Nature of the data set: Cell viability assay (Cell Titer-Glo), HMCL. It counts as cell-based. Particulars: Homo sapiens; OPM-2 HMCL, 96H; read-out: IC50. As for the experimental part: as §1, §2, §3
Data set [4] has as its system RPMI. As to the kind of experiment: Cell viability assay (Cell Titer-Glo), HMCL. It counts as cell-based. Particulars: Homo sapiens, 96H. As for the experimental part:
as §1, §2, §3

For data set [5], the system named is XG-7. Nature of the data set: Cell viability assay (Cell Titer-Glo), HMCL. It counts as cell-based. Particulars: Homo sapiens; XG-7 HMCL, 96H; read-out: IC50. As for the experimental part: as §1, §2, §3
For data set [6], the system named is XG11. Nature of the data set: Cell viability assay (Cell Titer-Glo), HMCL. It counts as cell-based. Particulars: Homo sapiens, 96H. The method, then: as §1, §2, §3
Data set [7] deals with XG12. As to the kind of experiment: Cell viability assay (Cell Titer-Glo), HMCL. It counts as cell-based. Particulars: Homo sapiens; XG12 HMCL, 96H; read-out: IC50. The method, then: as §1, §2, §3
Data set [8] concerns XG21. Nature of the data set: Cell viability assay (Cell Titer-Glo), HMCL. The conditions noted are these: Homo sapiens; XG21 HMCL, 96H; read-out: IC50. It counts as cell-based. The method, then: as §1, §2, §3
Data set [9] concerns XG24. Nature of the data set: Cell viability assay (Cell Titer-Glo), HMCL. It counts as cell-based. Particulars: Homo sapiens; XG24 HMCL, 96H; read-out: IC50. The method, then: as §1, §2, §3
In data set [10] the test system is XG6. Nature of the data set: Cell viability assay (Cell Titer-Glo), HMCL. It counts as cell-based. Particulars: Homo sapiens; XG6 HMCL, 96H; read-out: IC50. The method, then:
as §1, §2, §3

The test system of data set [11] is XG-7 and OPM-2 cell line. As to the kind of experiment: Apoptosis with iron supplementation (FeCl3), Annexin V-PE. It counts as cell-based, human. The conditions noted are these: 80 μM deferasirox or 100 nM Ironomycin, 4 hours then 72H with FeCl3 100 μM. The method, then:
XG-7 and OPM-2 cell line was pre-incubated with or without 80 μM of deferasirox or 100 nM of Ironomycin, for 4 hours followed by 72H incubation in presence or absence of FeCl3 (100 μM). Apoptosis was assessed using Annexin V-PE staining by flow cytometry.
(§4) Annexin V-PE staining for apoptosis analysis was performed using the “PE Annexin V Apoptosis Detection Kit I” (559763, Becton Dickinson).

In data set [12] the test system is pan-caspase, caspase3/7 and caspase 9 activity in OPM-2 cells. Nature of the data set: Caspase activity by luminometry. The conditions noted are these: OPM-2, 48H. It counts as cell-based, human. As for the experimental part: OPM-2 cells were treated as indicated during 48H and pan-caspase, caspase3/7 and caspase 9 activity were measured by luminometry. 4-OH-cyclophosphamide (80 μM) was used as a positive control (C).

The subject of data set [13] is XG7 and OPM-2 cells. As to the kind of experiment: Cell death with pan caspase inhibitor Q-VD-Oph pretreatment, AnnexinV-PE. The conditions noted are these: 20 μM Q-VD-Oph pretreatment, 48H. It counts as cell-based, human. As for the experimental part: XG7 and OPM-2 cells were pretreated at least 30 minutes by 20 μM of Q-VD-Oph as pan caspase inhibitor before treatment. Cells were treated as indicated during 48H, effect of Ironomycin on cell death induction was analyzed using AnnexinV-PE staining by flow cytometry (B). N=4.
as §4

In data set [14] the test system is H3K36me3. As to the kind of experiment: Western blot of histone methylation. It counts as cell-based, human. The conditions noted are these: 24H. As for the experimental part:
Cells were treated with iron chelators (80 μM Deferasirox), and Ironomycin (IC50 and 200 nM) during 24H. Protein levels of MMSET (isoforms I and II), MYC, H3K36me3 and H3K27me3 were analyzed by western blot. MMSET (isoforms I and II) and MYC signal were normalized by α-tubulin protein level, H3K36me3 and H3K27me3 signal were normalized by total histone 3 protein level.
The total cell lysates were obtained with RIPA 1× lysis buffer (#9806, Cell Signaling®) according with the supplier recommendations.
Protein lysates migrate on 10% polyacrylamide gel (NP-0301, Novex, Life Technologies®), in MOPS 1× running buffer (NP0001, Novex, Life Technologies®) or MES 1× running buffer NP-0002, Novex, Life Technologies®) and proteins are transferred to nitrocellulose membrane (1B301001, I-Blot Transfert Starck, NuPAGE, Life Technologies®). The primary antibodies mouse-anti-phospho-Histone H2A.X (Ser139) clone JBW301 ( 1/1000, Merck Millipore), anti-H3K36me3 (#ab9050, abcam®), anti-H3K27me3 (#9733, Cell Signaling®), anti-MMSET (#65127, Cell Signaling® et ab75359, abcam), anti-MYC (#5605, Cell Signaling®) were incubated in TBS-Tween 20 0.1% (Tris-Buffered Saline, pH 7.4) with 5% non-fat milk or Bovine serum albumin (Sigma-Aldrich, A7906). […] Quantification of protein levels was performed with Image J® software (National Institutes of Health, Bethesda, MD, USA).
For orientation: In western blotting, separated proteins are transferred to a membrane and probed.

In data set [15] the test system is non-MM cells. As to the kind of experiment: Assay on primary samples of patients, non-MM cells (flow cytometry). It counts as cell-based, human. The method, then: Primary MM cells were treated with Ironomycin (A) or AM-23 (B) and incubated during 96H with IL-6. The toxicity on MM cells and non-MM cells was analyzed by flow cytometry and expressed in % of control.
Bone marrow samples were collected after patients' written informed consent in accordance with the Declaration of Helsinki and institutional research board approval from Montpellier University hospital. Cells are obtained from […] of 5 patients with MM. Cells are obtained by density gradient separation and qualified by Flow cytometry.
Cells are cultured in Gibco® RPMI-1640 (Glutamax) medium (#6187-010) with 10% FBS at a density of 0.5×10^6 Cell/mL with 2 ng/mL of interleukin-6. Cells are seeded 24H after thawing and treated with various compounds during 72H.
Total cells were counted with trypan blue and stained with the panel CD38-APC, CD138-PE (Beckman coulter) and analyzed by flow cytometry (Fortessa cytometer, BD Pharmigen). Tumorous MM cells were gated on CD38+ and CD138+.
In general terms: A flow cytometer gives signals particle by particle.

Broadly, the IC50 is the concentration needed to halve the response being measured.

`C#CCN[C@@H]1C=C[C@]2(O[C@H]([C@@H](CC)C(=O)[C@@H](C)[C@@H](O)[C@H](C)[C@@H]3O[C@@H]([C@@H](CC)C(=O)O)CC[C@@H]3C)[C@@H](C)C[C@H]2C)O[C@@]12CC[C@@](C)([C@H]1CC[C@](O)(CC)[C@H](C)O1)O2` [Ironomycin]: the IC50 in [1] was determined as 13 nM; in data set [2], 64.7 nM; in [3] it was 36 nM; in data set [4], 73 nM; in data set [5], 52 nM; in data set [6], 51 nM. In addition, the IC50 in data set [7] was 30 nM; in data set [8], 156 nM; in [9], 19 nM; in [10], 26 nM. Further, the “effect of iron supplementation on induced apoptosis” value in data set [11] is listed as “not reversed by Iron supplementation”; in data set [11] (listed as ironomycin) it was “did not affect”. Also, in [12], the caspase activation result is “activation of caspases 3/7 and 9”. Besides, the “inhibition of induced apoptosis by pan caspase inhibitor Q-VD-Oph” value in data set [13] is reported as “partially inhibited”. Further, the H3K36 methylation result in data set [14] is “significant deregulation of H3K36 methylation”. Also, the “toxicity for non-tumoral cells” value in data set [15] is “without significant toxicity”.
